According to EP0238178B1, “Novel derivatives of erythromycylamine” (ELI LILLY AND COMPANY, priority 1986, dated 1987):
≈ marks a conversion by molar mass, not a printed value.

How the values were obtained:
[1] = system: Staphylococcus aureus X1.1; experiment: MIC, standard agar-dilution assay; format: cell-based; settings: read-out: MIC
[2] = system: Staphylococcus aureus V41; experiment: MIC, standard agar-dilution assay; format: cell-based; settings: Staphylococcus aureus V41, Penicillin-resistant strain, inducibly-resistant to erythromycin; read-out: MIC
Description: (§1) In addition to excellent in vitro activity against erythromycin-sensitive bacteria, several members of this new series have shown in vitro activity against erythromycin-resistant strains. These include strains which are inducibly-resistant to erythromycin (S.. aureus V41 and X400 and S. epidermidis EPI1) and even strains which are constitutively-resistant (S. epidermidis 270).

[3] = system: Staphylococcus aureus X400; experiment: MIC, standard agar-dilution assay; format: cell-based; settings: Staphylococcus aureus X400, Methicillin-resistant strain, inducibly-resistant to erythromycin; read-out: MIC
Description: as §1

[4] = system: Staphylococcus epidermidis 270; experiment: MIC, standard agar-dilution assay; format: cell-based; settings: Staphylococcus epidermidis 270, constitutively-resistant to erythromycin
Description: as §1

[5] = system: Staphylococcus aureus S13E; experiment: MIC, standard agar-dilution assay; format: cell-based
[6] = system: Staphylococcus epidermidis 222; experiment: MIC, standard agar-dilution assay; format: cell-based; settings: read-out: MIC
[7] = system: Streptococcus pyogenes C203; experiment: MIC, standard agar-dilution assay; format: cell-based; settings: read-out: MIC
[8] = system: Streptococcus pneumoniae Park I; experiment: MIC, standard agar-dilution assay; format: cell-based; settings: read-out: MIC
[9] = system: Streptococcus sp. group D X66; experiment: MIC, standard agar-dilution assay; format: cell-based; settings: Streptococcus sp. group D X66; read-out: MIC
[10] = system: Streptococcus sp. group D 2041; experiment: MIC, standard agar-dilution assay; format: cell-based; settings: read-out: MIC
[11] = system: Haemophilus influenzae C.L.; experiment: MIC, standard agar-dilution assay; format: cell-based; settings: Ampicillin-sensitive strain, read-out: MIC
Escherichia coli EC14 = experiment: MIC, standard agar-dilution assay; format: cell-based; settings: read-out: MIC
Staphylococcus aureus = experiment: Experimental bacterial infection in mice, ED50; format: in vivo; settings: Staphylococcus aureus, po, two doses, dose protecting 50% of animals, read-out: Oral ED50
Protocol: (§2) The new derivatives of this invention have also shown in vivo antimicrobial activity against experimental bacterial infections. When two doses of test compound were administered to mice in experimental infections, the activity observed was measured as an EDso value [effective dose in mg/kg to protect 50% of the test animals: see Warren Wick, et al., J. Bacteriol. 81, 233-235 (1961)].

Streptococcus pneumoniae = experiment: Experimental bacterial infection in mice, ED50; format: in vivo; settings: Streptococcus pneumoniae, po, two doses, dose protecting 50% of animals, read-out: Oral ED50
Protocol: as §2

Streptococcus pyogenes = experiment: Experimental bacterial infection in mice, ED50; format: in vivo; settings: Streptococcus pyogenes, po, two doses, dose protecting 50% of animals, read-out: Oral ED50
Protocol: as §2

[12] = system: Staphylococcus epidermidis EPI1; experiment: MIC, standard agar-dilution assay; format: cell-based
Description: as §1

[13] = system: Haemophilus influenzae 76; experiment: MIC, standard agar-dilution assay; format: cell-based; settings: Haemophilus influenzae 76, Ampicillin-resistant strain; read-out: MIC
[14] = system: Klebsiella pneumoniae X68; experiment: MIC, standard agar-dilution assay; format: cell-based; settings: read-out: MIC

Compound | MIC [1] [µg/mL] | MIC [2] [µg/mL] | MIC [3] [µg/mL] | MIC [4] [µg/mL] | MIC [5] [µg/mL] | MIC [6] [µg/mL] | MIC [7] [ng/mL] | MIC [8] [ng/mL] | MIC [9] [µg/mL] | MIC [10] [µg/mL] | MIC [11] [µg/mL] | MIC (Escherichia coli EC14) [µg/mL] | ED50 (Staphylococcus aureus) [mg/kg] | ED50 (Streptococcus pneumoniae) [mg/kg] | ED50 (Streptococcus pyogenes) [mg/kg] | MIC [12] [µg/mL] | MIC [13] [µg/mL] | MIC [14] [µg/mL]
CCCCC/C=C\CCCN[C@@H]1[C@H](C)[C@@H](O)[C@](C)(O)[C@@H](CC)OC(=O)[C@H](C)[C@@H](O[C@H]2C[C@@](C)(OC)[C@@H](O)[C@H](C)O2)[C@H](C)[C@@H](O[C@@H]2O[C@H](C)C[C@H](N(C)C)[C@H]2O)[C@](C)(O)C[C@H]1C [Compound 13] | 0.25 (≈ 0.286 µM) | 8 (≈ 9.16 µM) | 8 (≈ 9.16 µM) | 32 (≈ 36.6 µM) | 0.25 (≈ 0.286 µM) | 0.125 (≈ 0.143 µM) | < 8 | < 8 | 0.06 (≈ 0.0687 µM) | 1 (≈ 1.15 µM) | 2 (≈ 2.29 µM) | 128 (≈ 147 µM) | – | – | – | – | – | –
CCCCC/C=C/CCCN[C@@H]1[C@H](C)[C@@H](O)[C@](C)(O)[C@@H](CC)OC(=O)[C@H](C)[C@@H](O[C@H]2C[C@@](C)(OC)[C@@H](O)[C@H](C)O2)[C@H](C)[C@@H](O[C@@H]2O[C@H](C)C[C@H](N(C)C)[C@H]2O)[C@](C)(O)C[C@H]1C [Compound 14, 9-Deoxo-9-[(trans-dec-4-enyl)amino]erythromycin] | 0.5 (≈ 0.573 µM) | 8 (≈ 9.16 µM) | 16 (≈ 18.3 µM) | 32 (≈ 36.6 µM) | 0.25 (≈ 0.286 µM) | 0.25 (≈ 0.286 µM) | < 8 | < 8 | 0.125 (≈ 0.143 µM) | 2 (≈ 2.29 µM) | 2 (≈ 2.29 µM) | 128 (≈ 147 µM) | – | – | – | – | – | –
CC[C@H]1OC(=O)[C@H](C)[C@@H](O[C@H]2C[C@@](C)(OC)[C@@H](O)[C@H](C)O2)[C@H](C)[C@@H](O[C@@H]2O[C@H](C)C[C@H](N(C)C)[C@H]2O)[C@](C)(O)C[C@@H](C)[C@H](NCC#Cc2ccccc2)[C@H](C)[C@@H](O)[C@]1(C)O [Compound 18] | 1 (≈ 1.18 µM) | 16 (≈ 18.8 µM) | 32 (≈ 37.7 µM) | 64 (≈ 75.4 µM) | 0.5 (≈ 0.589 µM) | 0.5 (≈ 0.589 µM) | < 8 | < 8 | 0.25 (≈ 0.294 µM) | 1 (≈ 1.18 µM) | 4 (≈ 4.71 µM) | – | > 50 | 33.9 | 26.7 | – | – | –
CC[C@H]1OC(=O)[C@H](C)[C@@H](O[C@H]2C[C@@](C)(OC)[C@@H](O)[C@H](C)O2)[C@H](C)[C@@H](O[C@@H]2O[C@H](C)C[C@H](N(C)C)[C@H]2O)[C@](C)(O)C[C@@H](C)[C@H](N2CCCCC2)[C@H](C)[C@@H](O)[C@]1(C)O [Compound 72, 9-Deoxo-9-(1-piperidinyl)erythromycin] | 16 (≈ 19.9 µM) | > 128 | > 128 | – | 16 (≈ 19.9 µM) | 8 (≈ 9.96 µM) | 1000 (≈ 1.25 µM) | 1000 (≈ 1.25 µM) | 4 (≈ 4.98 µM) | 128 (≈ 159 µM) | 2 (≈ 2.49 µM) | > 128 | > 44 | 20.6 | 23.6 | > 128 | 64 (≈ 79.7 µM) | > 128
